Entries after “also recorded” stand apart in the source; their conditions may differ. Bridge positions count the residues as written; N and C are the ends. Square brackets hold non-standard residues; d marks the D form. Dap = NC[C@H](N)C(=O)O
What was measured:
mMC5R = molecular target: T1, mMC5R (Mus musculus, UniProt P41149); experiment: AlphaScreen cAMP assay, agonist and inverse agonist activity, HEK293 cells stably expressing mMC5R; type: cell-based; details: Table 6; apparent potency at inflection point
T1 construct: expressed in transfected cells

MC4R [1] = molecular target: T2, MC4R (Homo sapiens, UniProt P32245); experiment: AlphaScreen cAMP assay, inverse agonist activity at hMC4R; type: cell-based; design: expressed in transfected cells; details: for hMC4R Inverse Agonist, decrease from basal signal / EC50: Table 10; for fold decreased inverse agonist apparent potency relative to AGRP: wildtype hMC4R; for EC50: apparent potency, none = no inverse agonist activity
Protocol: The apparent potencies were determined from the inflection point of the normalized sigmoidal dose-response curves.
(§1) Briefly, cells 70-90% confluent were dislodged with Versene (Gibco®) at 37° C. and plated 10,000 cells/well in a 384-well plate (Optiplate™) with 10 μL freshly prepared stimulation buffer (1×HBSS, 5 mM HEPES, 0.5 mM IBMX, 0.1% BSA, pH=7.4) with 0.5 μg anti-cAMP acceptor beads per well.
(§2) Following stimulation, streptavidin donor beads (0.5 μg) and biotinylated-cAMP (0.62 μmol) were added to the wells in a subdued light environment with 10 μL lysis buffer (5 mM HEPES, 0.3% Tween-20, 0.1% BSA, pH=7.4) and the plates were incubated in the dark at room temperature for an additional 2 hr.
(§3) The EC50 values represent the mean of duplicate replicates performed in at least three independent experiments. The EC50 estimates and associated standard errors (SEM) were determined by fitting the data to a nonlinear least-squares analysis using the PRISM program (v4.0, GraphPad Inc.). The ligands were assayed as TFA salts and not corrected for peptide context.

hMC4R-Kir7.1(M125R) = molecular target: T3, hMC4R-Kir7.1(M125R) (Homo sapiens, UniProt P32245); experiment: Kir7.1 thallium flux assay, HEK293 cells expressing human MC4R and Kir7.1 (M125R); type: cell-based; details: for fold selective for Kir7.1 signaling over cAMP antagonism / fold selective for cAMP over Kir7.1 signaling: antagonist Ki / Kir7.1 apparent potency
T3 construct: expressed in transfected cells; Kir7.1 tetracycline-induced)
Protocol: In this assay, the Kir7.1 (M125R) variant was used since it previously was reported to result in higher unitary conductance compared to the native channel.^39
The compound with the highest apparent potency.
HEK293 cells stably expressing the human MC4R and Kir7.1 (M125R) were grown in MEM medium with 10% FBS without antibiotics, suspended in medium plus 1 μg ml^−1 tetracycline (to induce expression of the transfected tet-sensitive Kir7.1 gene) and plated (20 μL) in 384-well poly-D-lysine coated optical bottom plates (BD Biosciences) at 20,000 cells per well. Plates were incubated overnight for 16-24 h in the cell incubator at 37° C., 5% CO2. […] Plates were incubated in the dark for 1 h at room temperature and dye solution was removed. Upon addition of 20 μL 1×HBSS buffer, a liquid handler added 20 μL of ligand solution to entire plate simultaneously (ligands were prepared by serial dilution in 1×HBSS, 20 mM HEPES, 0.1% BSA, pH 7.3). Plates were incubated in the dark for 20 min (unless otherwise indicated). After a baseline reading on a Thallos Plate-reader (Vanderbilt, Tenn.), 10 μL of a thallium solution (1×HBSS, 20 mM HEPES, 2 mM Tl, pH 7.3) was loaded and fluorescence generated by thallium influx was recorded for 10 min. The signal was normalized to an untreated control.

free-feeding mice = experiment: Mouse feeding study, intracerebroventricular (ICV) administration; type: in vivo
Protocol: Cannulation surgeries were performed to place a cannula into the lateral cerebral ventricle as previously reported.^23,67,76 Mice were anesthetized with a mixture of xylazine (5 mg/kg) and ketamine (100 mg/kg) administered intraperitoneal (IP) and placed in a stereotaxic apparatus (David Kopf Instruments) that was used to guide the cannula placement. […] After surgery, flunixin meglumine (FluMegluine, Clipper Distribution Company) and 0.5 mL of 0.9% saline (Hospira, Lake Forrest, Ill.) was administered subcutaneously to aid in recovery. Mice recovered for at least 7 days prior to cannula placement validation. Mice were housed individually after surgery and for the remainder of the experiments.
Cannula placement was validated by the feeding response after ICV administration of 2.5 μg of human (h)PYY3-36 (cat # H8585; Bachem), as described previously.^23,67,75-76 Mice received saline treatment and hPYY treatment on different days separated by a washout period of at least 3 days in a crossover design nocturnal feeding paradigm. In this paradigm, compound or saline is administered 2 h prior to lights out (t=0 h) and body weight and food are measured. Mice have free access to food and water. At 4 h post-administration, food is measured. A mouse with a validated properly placed cannula consumed at least 0.8 g more food after hPYY administration compared to saline administration at 4 h.
All ICV and IT administration experiments utilized a crossover design with free access to standard chow. Mice were housed in RAR supplied conventional mouse cages. […] Matching vehicle controls (3% v/v DMSO in saline and 20% solutol) were prepared in parallel. The day of compound administration, an aliquot of stock solution was diluted with saline to the desired experimental dose in 3 μL, in parallel with vehicle control. For ICV administration, the desired experimental dose (3 μL) or vehicle control (3 μL) was delivered 2 h before lights out (t=0 h). For IT administration, the desired experimental dose (5 μL) or vehicle control (5 μL) was delivered 2 h before lights out (t=0 h). Food intake and mouse weight was manually measured at t=0, 2, 4, 6, 8, 24, 48, and 72 h post-injection. Mice recovered 6-7 days between treatments to reestablish pretreatment body weight and feeding patterns.

MC4R [2] = molecular target: T2, MC4R; experiment: AlphaScreen cAMP assay, antagonist activity (Schild, NDP-MSH) at hMC4R; type: cell-based; design: expressed in transfected cells; details: Example 5
Protocol: as §1, §2, §3

MC4R [3] = molecular target: T2, MC4R; experiment: Competitive radioligand binding, displacement of 125I-NDP-MSH, HEK293 cells expressing hMC4R; design: expressed in transfected cells; details: for fold decreased binding affinity compared to NDP-MSH: displacement of 125I-NDP-MSH; for IC50: Table 10
MC4R [4] = molecular target: T2, MC4R; experiment: Competitive radioligand binding, displacement of 125I-AGRP, HEK293 cells expressing hMC4R; design: expressed in transfected cells; details: for fold decreased binding affinity compared to AGRP: displacement of 125I-AGRP; for IC50: Table 10
Protocol: Competitive binding affinity experiments were performed on HEK-293 cells stably expressing the wildtype hMC4R. […] The assay media was carefully aspirated and cells were washed once with assay buffer. Cell were lysed with 500 μL 0.1 M NaOH and 500 μL 1% Triton X-100 for a minimum of 10 min. […] All experiments were performed with duplicate data points and in at least two independent experimental replicates. […] Concentration-response curves and IC50 values were generated and analyzed by the PRISM program (version 4.0. GraphPad Inc.) by a nonlinear regression method. The standard error of the mean (SEM) was derived from the IC50 values from at least two independent experimental replicates.

mMC4R [5] = molecular target: T4, mMC4R (Mus musculus, UniProt P56450); design: expressed in transfected cells; details: previous SAR study (ref 52); cited from earlier work
MC1R = MC1R (Mus musculus, UniProt Q01727); details: previously reported; read-out: MC1R agonist potency; cited from earlier work
rats = details: ICV administration into rats; cited from earlier work
mMC1R [6] = molecular target: T5, mMC1R (Mus musculus, UniProt Q01727); experiment: AlphaScreen cAMP assay, agonist activity, HEK293 cells stably expressing mMC1R; type: cell-based; details: Table 2; at 100 μM, relative to NDP-MSH
T5 construct: expressed in transfected cells

mMC3R [7] = molecular target: T6, mMC3R (Mus musculus, UniProt P33033); experiment: AlphaScreen cAMP assay, agonist activity, HEK293 cells stably expressing mMC3R; type: cell-based; details: Table 2; at 100 μM
T6 construct: expressed in transfected cells

mMC4R [8] = molecular target: T4, mMC4R; experiment: AlphaScreen cAMP assay, agonist activity, HEK293 cells stably expressing mMC4R; type: cell-based; design: expressed in transfected cells; details: Table 2; at 100 μM
male WT mice = experiment: Mouse feeding study, intrathecal (IT) injection; type: in vivo; details: 2 nmol IT
Protocol: This study was conducted in accordance with the guidelines set up by the Institutional Animal Care and Use Committee (IACUC) at the University of Minnesota. Male Wildtype (WT) mice (mixed 129/Sv×C57BL/6J background) derived from an in house breeding colony were used throughout this experiment as previously reported in literature.^14,23,61,63,65 Each mouse was individually housed in standard polycarbonate conventional cages provided by the University of Minnesota's Research Animal Resources (RAR). Mice were singly housed in order to adequately measure food intake of individual mice during experiments. At the beginning of this experiment, mice were age-matched at 24 weeks old. Research lab staff performed weekly cage changes. […] Mice were monitored daily to assess health.
All mouse feeding experiments were designed following a crossover, non-fasting (nocturnal) paradigm. […] Intrathecal injections were performed as previously described.^63,66-68 Mouse body weight and food weight was recorded in 2, 4, 6, 8, 24, 48 and 72 hours post-injection following a single IT injection. […]
Primary dependent variables were: (i) food intake; and (ii) body weight. Food intake and body weight was analyzed a two-factor within-subject Analysis of Variance (ANOVA) with between session variables of compound and the within-subject variable of time. […]

mMC1R [9] = molecular target: T5, mMC1R; details: displacement of radiolabeled NDP-MSH; read-out: Ki app, mMC1R; cited from earlier work
mMC3R [10] = molecular target: T6, mMC3R; details: displacement of radiolabeled NDP-MSH; read-out: Ki app, mMC3R; cited from earlier work
mMC4R [11] = molecular target: T4, mMC4R; design: expressed in transfected cells; details: displacement of radiolabeled NDP-MSH; read-out: Ki app, mMC4R; cited from earlier work

T4 sequence (P56450 whole entry): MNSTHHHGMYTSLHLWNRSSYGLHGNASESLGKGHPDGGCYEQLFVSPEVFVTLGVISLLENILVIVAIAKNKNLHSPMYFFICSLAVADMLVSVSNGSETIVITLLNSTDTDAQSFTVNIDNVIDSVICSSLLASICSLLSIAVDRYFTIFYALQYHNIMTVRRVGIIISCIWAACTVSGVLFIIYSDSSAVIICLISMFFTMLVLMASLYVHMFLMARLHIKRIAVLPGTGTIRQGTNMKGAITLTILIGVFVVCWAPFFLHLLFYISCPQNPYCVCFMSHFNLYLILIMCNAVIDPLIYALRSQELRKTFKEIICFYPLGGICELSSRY
T3 sequence (P32245 whole entry, stated change not applied): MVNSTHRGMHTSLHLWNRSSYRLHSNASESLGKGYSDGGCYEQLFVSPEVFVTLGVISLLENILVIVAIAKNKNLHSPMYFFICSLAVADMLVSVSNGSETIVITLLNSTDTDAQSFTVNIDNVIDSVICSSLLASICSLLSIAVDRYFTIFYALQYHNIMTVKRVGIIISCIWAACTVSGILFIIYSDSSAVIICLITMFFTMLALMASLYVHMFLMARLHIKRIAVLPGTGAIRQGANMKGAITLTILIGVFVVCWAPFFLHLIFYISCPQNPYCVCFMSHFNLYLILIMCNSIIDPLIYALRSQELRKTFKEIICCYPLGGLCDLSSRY
T2 sequence (P32245 whole entry): as the sequence (P32245 whole entry, stated change not applied) above
T1 sequence (P41149 whole entry): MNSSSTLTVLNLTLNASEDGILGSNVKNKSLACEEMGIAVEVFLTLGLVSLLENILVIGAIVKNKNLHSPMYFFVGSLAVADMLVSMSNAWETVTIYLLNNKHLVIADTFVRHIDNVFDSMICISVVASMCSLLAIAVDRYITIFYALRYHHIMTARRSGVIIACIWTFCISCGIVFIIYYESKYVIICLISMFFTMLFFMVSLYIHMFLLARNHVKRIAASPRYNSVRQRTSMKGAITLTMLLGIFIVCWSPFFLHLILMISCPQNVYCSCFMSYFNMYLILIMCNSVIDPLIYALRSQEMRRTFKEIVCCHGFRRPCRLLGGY
T6 sequence (P33033 whole entry): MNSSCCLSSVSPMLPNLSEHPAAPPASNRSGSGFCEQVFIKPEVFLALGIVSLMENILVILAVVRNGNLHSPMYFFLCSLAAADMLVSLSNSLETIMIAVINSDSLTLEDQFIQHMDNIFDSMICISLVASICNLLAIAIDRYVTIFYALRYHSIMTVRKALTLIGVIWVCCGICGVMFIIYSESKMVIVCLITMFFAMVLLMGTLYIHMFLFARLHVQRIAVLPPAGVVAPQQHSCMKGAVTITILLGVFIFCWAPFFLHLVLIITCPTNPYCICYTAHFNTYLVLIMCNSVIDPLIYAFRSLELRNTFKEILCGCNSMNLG
T5 sequence (Q01727 whole entry): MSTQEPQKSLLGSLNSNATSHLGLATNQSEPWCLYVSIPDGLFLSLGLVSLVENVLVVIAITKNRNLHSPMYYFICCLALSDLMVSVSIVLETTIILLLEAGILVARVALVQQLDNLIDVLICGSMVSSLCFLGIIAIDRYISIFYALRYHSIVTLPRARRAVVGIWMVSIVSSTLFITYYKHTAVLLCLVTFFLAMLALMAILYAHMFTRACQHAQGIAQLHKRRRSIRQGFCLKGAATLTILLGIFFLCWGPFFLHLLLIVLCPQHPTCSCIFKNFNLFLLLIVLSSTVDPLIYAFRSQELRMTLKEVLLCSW
MC1R, sequence (Q01727 whole entry): as above

## c[Pro-Arg-Phe-Phe-Asn-Ala-Trp-DPro] [Compound 8 (Example 3)]
mMC5R
  EC50: 150 nM

## c[Pro-Arg-Phe-Phe-Asn-Ala-Phe-DPro] [Peptide 1 (Example 1)]
MC4R [1]
  hMC4R Inverse Agonist, decrease from basal signal: (-30%)

## c[Pro-Arg-Phe-Phe-Abu-Ala-Phe-DPro] [Peptide 4 (Example 1)]
hMC4R-Kir7.1(M125R)
  fold decreased thallium flux apparent potency compared to MDE3-119-10c: 5 fold
  fold selective for Kir7.1 signaling over cAMP antagonism: approximately 50 fold
free-feeding mice; 5 nmol dose
  food intake after ICV administration: observed to decrease food intake, a trend that did not achieve statistical significance
free-feeding mice; 2 and 5 nmol doses
  food intake after ICV administration: no significant food increase was observed by 8 h
MC4R [2]
  fold decreased antagonist potency relative to MDE3-119-8c at the hMC4R: 19 fold
MC4R [1]
  hMC4R Inverse Agonist, decrease from basal signal: (-15%)
  fold decreased inverse agonist apparent potency relative to AGRP: 9 fold
MC4R [3]
  fold decreased binding affinity compared to NDP-MSH: 20 fold
MC4R [4]
  fold decreased binding affinity compared to AGRP: 16 fold
mMC4R [5]
  fold decreased antagonist potency compared to the Dap substitution at the mMC4R: 25 fold

## c[Pro-Arg-Phe-Phe-Asn-Ala-hPhe-DPro] [Compound 11 (Example 3)]
mMC5R
  EC50: 290 nM

## c[Pro-Arg-Phe-Phe-Asp-Ala-Phe-DPro] [Peptide 7 (Example 1)]
hMC4R-Kir7.1(M125R)
  fold decreased thallium flux apparent potency compared to MDE3-119-10c: 2 fold
  fold selective for Kir7.1 signaling over cAMP antagonism: over 500 fold
MC4R [2]
  fold decreased antagonist potency relative to MDE3-119-8c at the hMC4R: 90 fold
MC4R [1]
  hMC4R Inverse Agonist, decrease from basal signal: (-35%)
  EC50: 2000 nM
  fold decreased inverse agonist apparent potency relative to AGRP: 830 fold
MC4R [3]
  IC50: 3600 nM
  fold decreased binding affinity compared to NDP-MSH: 130 fold
MC4R [4]
  IC50: 1300 nM
  fold decreased binding affinity compared to AGRP: 100 fold

## H-Tyr-c[Dap-Arg-Phe-Phe-Asn-Ala-Phe-Asp]-Tyr-NH2 (H-Y[Dap]RFFNAFDY-NH2; lactam 2-9)
MC1R
  EC50: 28100 nM

## c[Pro-Arg-Phe-Phe-Ala-Ala-Phe-DPro] [Peptide 3 (Example 1)]
MC4R [1]
  hMC4R Inverse Agonist, decrease from basal signal: (-35%)

## c[Pro-Arg-Phe-Phe-His-Ala-Phe-DPro] [Peptide 10 (Example 1)]
MC4R [1]
  hMC4R Inverse Agonist, decrease from basal signal: (-30%)
MC4R [3]
  fold decreased binding affinity compared to NDP-MSH: 5 fold
MC4R [4]
  fold decreased binding affinity compared to AGRP: 4 fold

## c[Pro-Arg-Phe-Phe-DDap-Ala-Phe-DPro] [Peptide 9 (Example 1)]
hMC4R-Kir7.1(M125R)
  fold decreased thallium flux apparent potency compared to MDE3-119-10c: 80 fold
  fold selective for cAMP over Kir7.1 signaling: 4 fold
MC4R [1]
  hMC4R Inverse Agonist, decrease from basal signal: (-30%)

## AGRP(83-132): hypothesized biologically active form of agouti-related protein (SSRRCVRLHESCLGQQVPCCDPCATCYCRFFNAFCYCRKLGTAMNPCSRT; UniProt O00253 83-132, looked up, fragment)
rats
  increase of 24 h food intake above saline: 77%

## 15 (cyclo(PRFFWAF[dP]); SMILES C[C@@H]1NC(=O)[C@H](Cc2c[nH]c3ccccc23)NC(=O)[C@H](Cc2ccccc2)NC(=O)[C@H](Cc2ccccc2)NC(=O)[C@H](CCCNC(=N)N)NC(=O)[C@@H]2CCCN2C(=O)[C@H]2CCCN2C(=O)[C@H](Cc2ccccc2)NC1=O) [Peptide 15]
mMC1R [6]
  mMC1R percent maximal stimulatory response: 80% @ 100 μM
mMC3R [7]
  mMC3R percent maximal stimulatory response: 40% @
mMC4R [8]
  mMC4R percent maximal stimulatory response: 50% @

## c[Pro-Arg-Phe-Phe-Dap-Ala-Phe-DPro] [Peptide 2 (Example 1)]
hMC4R-Kir7.1(M125R)
  fold decreased thallium flux apparent potency compared to MDE3-119-10c: 28 fold
  fold selective for cAMP over Kir7.1 signaling: 2 fold
free-feeding mice; 3 nmol dose
  food intake after ICV administration vs vehicle: significant increase in food intake at 4, 6, and 8 h
free-feeding mice; free feeding male mice, doses up to 3 nmol, listed as MDE3-119-8c
  food intake after ICV administration: dose-dependent increase in food intake was observed for the first 8 h post-injection; also recorded: did not significantly alter cumulative food intake after 24 h
MC4R [1]
  hMC4R Inverse Agonist, decrease from basal signal: (-50%)

## c[Pro-Arg-Phe-Phe-Glu-Ala-Phe-DPro] [Peptide 8 (Example 1)]
MC4R [2]
  fold decreased antagonist potency relative to MDE3-119-8c at the hMC4R: 70 fold
MC4R [1]
  hMC4R Inverse Agonist, decrease from basal signal: (-35%)
  EC50: 1100 nM
  fold decreased inverse agonist apparent potency relative to AGRP: 450 fold
MC4R [3]
  IC50: 2500 nM
  fold decreased binding affinity compared to NDP-MSH: 90 fold
MC4R [4]
  IC50: 1400 nM
  fold decreased binding affinity compared to AGRP: 110 fold

## c[Pro-Arg-Phe-Phe-Asn-Ala-Nle-DPro] [Compound 7 (Example 3)]
Male WT mice
  mouse body weight vs vehicle control: treated animals weighing more than control animals
Male WT mice; single injection, listed as KAF2039-7
  cumulative food intake vs vehicle: statistically significant increase in food intake at 2 and 6 hours post-injection; also recorded: prolonged trend of increased food intake up to 72 hours post-injection

## c[Pro-Arg-Phe-Phe-Asn-Ala-Cha-DPro] [Compound 10 (Example 3)]
mMC5R
  EC50: 780 nM

## c[Pro-Arg-Phe-Phe-Ser-Ala-Phe-DPro] [Peptide 5 (Example 1)]
MC4R [1]
  hMC4R Inverse Agonist, decrease from basal signal: (-25%)
  EC50: 16 ± 4 nM

B1: mASP: recombinant mouse agouti-signaling protein (protein, UniProt Q03288 23-131, looked up)
Agouti-signaling protein: HLALEETLGDDRSLRSNSSMNSLDFSSVSIVALNKKSKKISRKEAEKRKRSSKKKASMKKVARPPPPSPCVATRDSCKPPAPACCDPCASCQCRFFGSACTCRVLNPNC
mMC1R [9]
  Ki: 2.6 nM
mMC3R [10]
  Ki: 190 nM
mMC4R [11]
  Ki: 54 nM

From US11332499B2, “Cyclic peptides and methods of use thereof” (Regents of the University of Minnesota, priority 2018, dated 2022)
